Results as given in ChEMBL document CHEMBL1201862, “PubChem BioAssay data set” (2004).
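1) Cells in 96-well plates. 2) Compound, 48 h, 5 concentrations. 3) Linear interpolation between surrounding doses. 4) Unreached endpoint = highest concentration. GI50: concentration for 50% inhibition of growth.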 The source made the active and inactive calls. Rule as the data show it: active = GI50 up to about 1.1 µM and inactive = higher.

Assays:
Assay in all cases: inhibition of tumour cell growth, NCI panel, 48 h
786-0 = test system: 786-0
A498 = test system: A498
A549 = test system: A549
ACHN = test system: ACHN
BT-549 = test system: BT-549
CAKI-1 = test system: CAKI-1
CCRF-CEM = test system: CCRF-CEM
COLO 205 = test system: COLO 205
DU-145 = test system: DU-145
EKVX = test system: EKVX
HCC 2998 = test system: HCC 2998
HCT-116 = test system: HCT-116
HCT-15 = test system: HCT-15
HL-60 = test system: HL-60
HOP-62 = test system: HOP-62
HOP-92 = test system: HOP-92
HT-29 = test system: HT-29
Hs-578T = test system: Hs-578T
IGROV-1 = test system: IGROV-1
KM12 = test system: KM12
LOX IMVI = test system: LOX IMVI
M14 = test system: M14
MCF7 = test system: MCF7
MDA-MB-231 = test system: MDA-MB-231
MDA-MB-435 = test system: MDA-MB-435
MDA-N = test system: MDA-N
MOLT-4 = test system: MOLT-4
Malme-3M = test system: Malme-3M
NCI-H226 = test system: NCI-H226
NCI-H23 = test system: NCI-H23
NCI-H460 = test system: NCI-H460
NCI-H522 = test system: NCI-H522
NCI/ADR-RES = test system: NCI/ADR-RES
OVCAR-3 = test system: OVCAR-3
OVCAR-4 = test system: OVCAR-4
OVCAR-5 = test system: OVCAR-5
OVCAR-8 = test system: OVCAR-8
PC-3 = test system: PC-3
RXF 393 = test system: RXF 393
SF-268 = test system: SF-268
SF-295 = test system: SF-295
SF-539 = test system: SF-539
SK-MEL-28 = test system: SK-MEL-28
SK-MEL-2 = test system: SK-MEL-2
SK-MEL-5 = test system: SK-MEL-5
SN12C = test system: SN12C
SNB-19 = test system: SNB-19
SNB-75 = test system: SNB-75
SR = test system: SR
SW-620 = test system: SW-620
T47D = test system: T47D
TK-10 = test system: TK-10
U-251 = test system: U-251
UACC-257 = test system: UACC-257
UACC-62 = test system: UACC-62
UO-31 = test system: UO-31
RPMI-8226 = test system: RPMI-8226

In the case of `O=C(CC(=O)N1N=C(N2CCCCC2)CC1c1ccccc1)Nc1ccccc1` (stereo not given), the GI50 (786-0) is reported as > 100 µM (inactive), the GI50 (A498) is reported as > 100 µM (inactive) and the GI50 (A549) is reported as > 100 µM (inactive). The GI50 (ACHN) was > 100 µM (inactive), the GI50 (BT-549) was > 100 µM (inactive) and the GI50 (CAKI-1) was > 100 µM (inactive). The GI50 (CCRF-CEM) was > 100 µM (inactive), the GI50 (COLO 205) was > 100 µM (inactive) and the GI50 (DU-145) was > 100 µM (inactive). The GI50 (EKVX) was > 100 µM (inactive), the GI50 (HCC 2998) was > 100 µM (inactive) and the GI50 (HCT-116) was > 100 µM (inactive). The GI50 (HCT-15) was > 100 µM, the GI50 (HL-60) was > 100 µM (inactive) and the GI50 (HOP-62) was > 100 µM (inactive). The GI50 (HOP-92) was 91 µM (inactive), the GI50 (HT-29) was > 100 µM (inactive) and the GI50 (Hs-578T) was > 100 µM (inactive). The GI50 (IGROV-1) was > 100 µM (inactive), the GI50 (KM12) was > 100 µM (inactive) and the GI50 (LOX IMVI) was > 100 µM (inactive). For the same compound, the GI50 (M14) was > 100 µM (inactive), the GI50 (MCF7) was > 100 µM (inactive) and the GI50 (MDA-MB-231) was > 100 µM (inactive). For the same compound, the GI50 (MDA-MB-435) was > 100 µM (inactive), the GI50 (MDA-N) was > 100 µM (inactive) and the GI50 (MOLT-4) was > 100 µM (inactive). For the same compound, the GI50 (Malme-3M) was > 100 µM (inactive), the GI50 (NCI-H226) was > 100 µM (inactive) and the GI50 (NCI-H23) was > 100 µM (inactive). The GI50 (NCI-H460) was > 100 µM (inactive), the GI50 (NCI-H522) was > 100 µM (inactive) and the GI50 (NCI/ADR-RES) was > 100 µM (inactive). For the same compound, the GI50 (OVCAR-3) was > 100 µM (inactive), the GI50 (OVCAR-4) was > 100 µM (inactive) and the GI50 (OVCAR-5) was > 100 µM (inactive). The GI50 (OVCAR-8) was > 100 µM (inactive), the GI50 (PC-3) was > 100 µM (inactive) and the GI50 (RXF 393) was > 100 µM (inactive). The GI50 (SF-268) was > 100 µM (inactive), the GI50 (SF-295) was > 100 µM (inactive) and the GI50 (SF-539) was > 100 µM (inactive). For the same compound, the GI50 (SK-MEL-28) was > 100 µM (inactive), the GI50 (SK-MEL-2) was > 100 µM (inactive) and the GI50 (SK-MEL-5) was > 100 µM (inactive). For the same compound, the GI50 (SN12C) was > 100 µM (inactive), the GI50 (SNB-19) was > 100 µM (inactive) and the GI50 (SNB-75) was > 100 µM (inactive). The GI50 (SR) was > 100 µM (inactive), the GI50 (SW-620) was > 100 µM (inactive) and the GI50 (T47D) was > 100 µM (inactive). The GI50 (TK-10) was > 100 µM (inactive), the GI50 (U-251) was > 100 µM (inactive) and the GI50 (UACC-257) was > 100 µM (inactive). The GI50 (UACC-62) was > 100 µM (inactive) and the GI50 (UO-31) was > 100 µM (inactive).
For `CN(C)c1ccc(/C=N\NC(=O)Nc2cccc3ccccc23)cc1`, the GI50 (786-0) was 5.74 µM (inactive), the GI50 (A498) was 8.99 µM (inactive) and the GI50 (A549) was 9.57 µM (inactive). For the same compound, the GI50 (ACHN) was 6.98 µM (inactive), the GI50 (BT-549) was 11.7 µM (inactive) and the GI50 (CAKI-1) was 3.25 µM (inactive). For the same compound, the GI50 (CCRF-CEM) was 4.26 µM (inactive), the GI50 (COLO 205) was 4.99 µM (inactive) and the GI50 (DU-145) was 6.71 µM (inactive). For the same compound, the GI50 (EKVX) was 0.215 µM (active), the GI50 (HCC 2998) was 9.51 µM (inactive) and the GI50 (HCT-116) was 5.52 µM (inactive). For the same compound, the GI50 (HCT-15) was 1.53 µM, the GI50 (HL-60) was 2.03 µM (inactive) and the GI50 (HOP-62) was 8.67 µM (inactive). For the same compound, the GI50 (HOP-92) was 20.3 µM (inactive), the GI50 (HT-29) was 2.62 µM (inactive) and the GI50 (Hs-578T) was 4.17 µM (inactive). For the same compound, the GI50 (IGROV-1) was 9.91 µM (inactive), the GI50 (KM12) was 2.61 µM (inactive) and the GI50 (LOX IMVI) was 4.15 µM (inactive). For the same compound, the GI50 (M14) was 5.37 µM (inactive), the GI50 (MCF7) was 3.86 µM (inactive) and the GI50 (MDA-MB-231) was 12.3 µM (inactive). The GI50 (MDA-MB-435) was 0.927 µM (active), the GI50 (MDA-N) was 1.53 µM (inactive) and the GI50 (MOLT-4) was 4.56 µM (inactive). The GI50 (Malme-3M) was 4.03 µM (inactive), the GI50 (NCI-H226) was 0.208 µM (active) and the GI50 (NCI-H23) was 4.75 µM (inactive). For the same compound, the GI50 (NCI-H460) was 4.31 µM (inactive), the GI50 (NCI-H522) was 2.08 µM (inactive) and the GI50 (NCI/ADR-RES) was 7.41 µM (inactive). For the same compound, the GI50 (OVCAR-4) was 15.5 µM (inactive), the GI50 (OVCAR-5) was 19.4 µM (inactive) and the GI50 (OVCAR-8) was 14.9 µM (inactive). The GI50 (PC-3) was 6.62 µM (inactive), the GI50 (RPMI-8226) was 4.28 µM (inactive) and the GI50 (RXF 393) was 20.7 µM (inactive). The GI50 (SF-268) was 13 µM (inactive), the GI50 (SF-539) was 4.4 µM (inactive) and the GI50 (SK-MEL-28) was 19.1 µM (inactive). For the same compound, the GI50 (SK-MEL-2) was 2.9 µM (inactive), the GI50 (SK-MEL-5) was 3.97 µM (inactive) and the GI50 (SN12C) was 11.8 µM (inactive). The GI50 (SNB-19) was 2.46 µM (inactive), the GI50 (SNB-75) was 9.02 µM (inactive) and the GI50 (SR) was 1.6 µM (inactive). For the same compound, the GI50 (SW-620) was 6.11 µM (inactive), the GI50 (T47D) was 2.73 µM (inactive) and the GI50 (TK-10) was 12.2 µM (inactive). The GI50 (U-251) was 5.82 µM (inactive), the GI50 (UACC-257) was 3.74 µM (inactive) and the GI50 (UO-31) was 13.2 µM (inactive).
